US20120282224A1, “MARKERS ASSOCIATED WITH RIBAVIRIN-INDUCED ANEMIA” (priority 2009, published 2012)

Tests used:
[1] = system: erythrocytes; settings: erythrocytes versus plasma; cited from earlier work
[2] = taribavirin with PegIntron (peginterferon alfa-2b), clinical trials; cited from earlier work
[3] = human, in vivo, 4 weeks
Description: In order to identify genetic contributions to treatment response, the inventors carried out a genome-wide association study on genomic samples obtained from the IDEAL study, the design of which was reported in McHutchison et al., J. Viral Hepatol., Vol. 15, No. 7, July 2008, pp. 475-481). Briefly, in the IDEAL study, treatment-naive patients chronically infected with HCV genotype 1 were randomized (1:1:1) to receive one of the following 48-week treatment regimens: peginterferon alfa-2b (PEG2b) at 1.5 mcg/kg/week plus ribavirin (RBV); PEG2b at 1.0 mcg/kg/week plus RBV; or peginterferon alfa-2a (PEG2a) at 180 meg/week+RBV. In the PEG2b regimens, patients weighing 40-65 kg received 800 mg/day RBV; patients weighing more than 65 and up to 85 kg received 1000 mg/day RBV; patients weighing more than 85 and up to 105 kg received 1200 mg/day RBV; and patients weighing more than 105 kg received 1400 mg/day RBV). In the PEG2a regimen patients weighing <75 kg received 1000 mg/day of RBV while patients weighing ≧75 kg received 1200 mg/day of RBV. Hemoglobin values were measured at baseline (before the first dose of treatment), at week 2, 4, 8, 12, and then every 6 weeks up to treatment completion (48 weeks total). Follow-up measures were obtained at 4, 12 and 24 weeks post-treatment. […]

## NC(=O)c1ncn([C@@H]2O[C@H](COP(=O)(O)OP(=O)(O)OP(=O)(O)O)[C@@H](O)[C@H]2O)n1 [RTP]
[1]
  RTP concentration in erythrocytes relative to plasma: 60 fold

## N=C(N)c1ncn([C@@H]2O[C@H](CO)[C@@H](O)[C@H]2O)n1 [taribavirin, 1-(β-D-Ribofuranosyl)-1,2,4-triazole-3-carboximide]
[2]
  anemia compared with patients treated with ribavirin and PegIntron: less anemia

## NC(=O)c1ncn([C@@H]2O[C@H](CO)[C@@H](O)[C@H]2O)n1 [RBV, 1-[(2R,3R,4S,5R)-3,4-dihydroxy-5-(hydroxymethyl)oxolan-2-yl]-1H-1,2,4-triazole-3-carboxamide]
[3]
  patients with Hb concentrations <10 g/dL (severe anemia): 13%
